Some test systems named below: UACC-257 melanoma; SK-OV-3 ovarian; HOP-92 NSCLC; U251 CNS; SW-620 colon; ACHN renal; TK-10 renal; COLO 205 colon; MALME-3M melanoma.
Test in all cases: DTP human tumour cell line panel, 48 h

For orientation: TGI means the concentration at which net growth stops. A higher TGI goes with lower sensitivity of the cells. The GI50 is the concentration that inhibits growth by half.

The structures appear in SMILES notation.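 Results reflect a 48-hour exposure of cells in 96-well plates to compound at five concentrations. GI50: concentration for 50% inhibition of growth. TGI: total growth inhibition.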 Where only a bound is given, the exact number is not on record here.

With `CC(=O)OC12C(C)=C(C)C(=O)N1c1ccccc1N2C(C)=O` (stereo unspecified), the TGI in the assay with UACC-257 melanoma, in the assay with SK-OV-3 ovarian, in the assay on HOP-92 NSCLC, in the assay on U251 CNS, in the assay with SW-620 colon and in the assay on ACHN renal was above 100 µM throughout. The TGI in the assay on TK-10 renal and with COLO 205 colon was above 100 µM each time.
Turning to `COc1ccc(CC(=O)NCCc2ccc(OC)c(OC)c2OC)cc1`, the TGI with UACC-257 melanoma, in the assay with SK-OV-3 ovarian, in the assay on MALME-3M melanoma, in the assay with U251 CNS, with SW-620 colon and in the assay on ACHN renal was above 100 µM in each case. For the same molecule, in the assay on TK-10 renal, the concentration for total growth inhibition (TGI) was above 100 µM.
For `Nc1ncc(-c2ccc3ncnc(Nc4cccc(Cl)c4)c3c2)cn1`, the GI50 was above 100 µM with UACC-257 melanoma, 7.41 nM in the assay with HOP-92 NSCLC, 538 nM with U251 CNS and 23.2 nM in the assay with ACHN renal. Also, the values for the concentration for total growth inhibition (TGI) with UACC-257 melanoma and in the assay with HOP-92 NSCLC were above 100 µM and 0.0974 µM, respectively.
With `COc1ccc(/C=C/c2cc(OC)c(OC(C)=O)c(OC)c2)cc1`, the TGI is 66.9 µM in the assay with UACC-257 melanoma; above 100 µM in the assay with SK-OV-3 ovarian; 65.1 µM in the assay with HOP-92 NSCLC; 88.1 µM with MALME-3M melanoma; 38.4 µM with U251 CNS; above 100 µM with ACHN renal. In the assay with COLO 205 colon, this molecule showed a concentration for total growth inhibition (TGI) above 100 µM.
Turning to `O=C(CC1(O)C(=O)Nc2c(Cl)cc(Cl)cc21)c1ccccc1` (stereo unspecified), the TGI in the assay with UACC-257 melanoma, in the assay with SK-OV-3 ovarian, in the assay with HOP-92 NSCLC, in the assay on MALME-3M melanoma, in the assay with SW-620 colon and with ACHN renal was above 100 µM in each case. The concentration for total growth inhibition (TGI) in the assay with TK-10 renal and with COLO 205 colon was above 100 µM in each case.
As for `O=C(C[n+]1ccccc1)N/N=C(/CCC(=O)N(Cc1ccccc1)Cc1ccccc1)CC(=O)c1ccccc1`, the TGI in the assay on UACC-257 melanoma, with HOP-92 NSCLC, in the assay on MALME-3M melanoma, with U251 CNS, with SW-620 colon and in the assay on ACHN renal was above 100 µM each time. The TGI in the assay on TK-10 renal and with COLO 205 colon was above 100 µM in each case.
In the case of `O=C1c2ccccc2C(=O)N1CCc1ncc(-c2ccccc2)[nH]1`, the total growth inhibition concentration (TGI) in the assay with UACC-257 melanoma, with SK-OV-3 ovarian, with MALME-3M melanoma, with U251 CNS, in the assay with SW-620 colon and in the assay with ACHN renal was above 100 µM in each case. Also, the total growth inhibition concentration (TGI) in the assay on TK-10 renal and in the assay with COLO 205 colon was above 100 µM each time.
As for `CC1SC(c2ccccc2Cl)N(NC(=O)C(O)c2ccccc2)C1=O` (stereo unspecified), the GI50 is 49.5 µM with UACC-257 melanoma; above 100000 nM in the assay with HOP-92 NSCLC; 66900 nM in the assay with U251 CNS; above 100000 nM in the assay on SW-620 colon; 55800 nM with ACHN renal; 31 µM with TK-10 renal. For the same molecule, the TGI in the assay on UACC-257 melanoma, in the assay on HOP-92 NSCLC, in the assay on U251 CNS, in the assay with SW-620 colon, with ACHN renal and in the assay with TK-10 renal was above 100 µM in each case.
Regarding `CSC(=NC(=O)c1ccccc1Cl)SCCSC(=NC(=O)c1ccccc1Cl)SC`, the total growth inhibition concentration (TGI) in the assay with UACC-257 melanoma, in the assay with HOP-92 NSCLC, in the assay with MALME-3M melanoma, in the assay with U251 CNS, with SW-620 colon and in the assay with ACHN renal was above 100 µM in each case. In addition, the TGI with TK-10 renal and with COLO 205 colon was above 100 µM throughout.
Turning to `c1ccc(SC(Sc2ccccc2)=C2CCC2)cc1`, the total growth inhibition concentration (TGI) in the assay with UACC-257 melanoma, in the assay with SK-OV-3 ovarian, in the assay on HOP-92 NSCLC, in the assay on U251 CNS, in the assay on SW-620 colon and in the assay with ACHN renal was above 100 µM in each case. In addition, the concentration for total growth inhibition (TGI) in the assay on TK-10 renal and in the assay with COLO 205 colon was above 100 µM each time.
As for `NC(=S)N1N=C2CCCCCC[C@@H]2[C@H]1c1ccccc1`, the total growth inhibition concentration (TGI) in the assay on UACC-257 melanoma, with SK-OV-3 ovarian, with MALME-3M melanoma, with U251 CNS, in the assay on SW-620 colon and with ACHN renal was above 100 µM each time. Moreover, the total growth inhibition concentration (TGI) in the assay on TK-10 renal and in the assay on COLO 205 colon was above 100 µM in each case.
On to `COc1ccc2c(c1)c(-c1nc(-c3cn(C)c4ccncc34)cs1)cn2C`, for which the GI50 in the assay with UACC-257 melanoma is 1.9 µM; with SK-OV-3 ovarian, 2520 nM; in the assay with HOP-92 NSCLC it was 1960 nM; in the assay with MALME-3M melanoma, 2020 nM; with U251 CNS, 1850 nM; with SW-620 colon it was 1960 nM. The values for the GI50 in the assay with ACHN renal and in the assay with TK-10 renal were 1730 nM and 1.49 µM, respectively. For the same molecule, the TGI with UACC-257 melanoma was found to be 3.6 µM; with SK-OV-3 ovarian, 5.12 µM; in the assay on HOP-92 NSCLC, 3.79 µM; in the assay with MALME-3M melanoma it was 3.58 µM; in the assay on U251 CNS it was 3.4 µM; in the assay with SW-620 colon it was 3.73 µM. Also, the TGI is 3.11 µM with ACHN renal and 3.06 µM in the assay on TK-10 renal.
With `Cc1ccc(/C=C/C(=O)c2ccc(Cl)c(Cl)c2)cc1`, the concentration for total growth inhibition (TGI) with UACC-257 melanoma, in the assay on MALME-3M melanoma, in the assay on U251 CNS, with SW-620 colon, in the assay on ACHN renal and with TK-10 renal was above 100 µM each time. The molecule also returned a TGI with COLO 205 colon above 100 µM.

The values above are taken from PubChem BioAssay (NCI).
